Source: patent US10294202B2, “Pyrrolidinones as herbicides” (FMC Corporation, priority 2013, dated 2019)

How the values were obtained:
Experiment in all cases: Test A pre-/postemergence herbicide test
crabgrass, large = type: in vivo, Digitaria sanguinalis
Description: (§1) Seeds of plant species selected from bamyardgrass (Echinochloa crus-galli), kochia (Kochia scoparia), ragweed (common ragweed, Ambrosia elatior), ryegrass, Italian (Italian ryegrass, Lolium multiflorum), crabgrass, large (large crabgrass Digitaria sanguinalis), giant foxtail (Setaria faberii), morningglory (Ipomoea spp.), pigweed (Amaranthus retroflexus), velvetleaf (Abutilon theophrasti), wheat (Triticum aestivum), and corn (Zea mays) were planted into a blend of loam soil and sand and treated preemergence with a directed soil spray using test chemicals formulated in a non-phytotoxic solvent mixture which included a surfactant. At the same time, plants selected from these crop and weed species and also blackgrass (Alopecurus myosuroides), and galium (catchweed bedstraw, Galium aparine) were planted in pots containing the same blend of loam soil and sand and treated with postemergence applications of test chemicals formulated in the same manner. Plants ranged in height from 2 to 10 cm and were in the one- to two-leaf stage for the postemergence treatment. Treated plants and untreated controls were maintained in a greenhouse for approximately 10 days, after which time all treated plants were compared to untreated controls and visually evaluated for injury. Plant response ratings, summarized in Table A, are based on a 0 to 100 scale where 0 is no effect and 100 is complete control. A dash (-) response means no test result.

wheat = type: in vivo, Triticum aestivum
Description: as §1

giant foxtail = type: in vivo, Setaria faberii
Description: as §1

pigweed = type: in vivo, Amaranthus retroflexus
Description: as §1

corn = type: in vivo, Zea mays
Description: as §1

velvetleaf = type: in vivo, Abutilon theophrasti
Description: as §1

barnyardgrass = type: in vivo, Echinochloa crus-galli
Description: as §1

morningglory = type: in vivo, Ipomoea spp.
Description: as §1

[1] = Postemergence, 1000 g ai/ha, 0 to 100 scale (0 no effect, 100 complete control)
[2] = Preemergence, 1000 g ai/ha, visual rating on 0 to 100 scale (0 no effect, 100 complete control), approx. 10 days
[3] = preemergence, 1000 g ai/ha, 0 to 100 scale
[4] = preemergence, 1000 g ai/ha, 0 to 100 scale (0 no effect, 100 complete control)
[5] = Postemergence, 125 g ai/ha, 0 to 100 scale, 0 no effect, 100 complete control
[6] = Postemergence, 500 g ai/ha, 0 to 100 scale (0 no effect, 100 complete control)
[7] = Preemergence, 125 g ai/ha, visual rating on 0 to 100 scale (0 no effect, 100 complete control)
[8] = preemergence, 500 g ai/ha, 0 to 100 scale
[9] = preemergence, 500 g ai/ha, 0 to 100 scale (0 no effect, 100 complete control)
[10] = Postemergence, 125 g ai/ha, visual rating on 0 to 100 scale (0 no effect, 100 complete control), approx. 10 days

O=C1NCC(c2ccc(F)c(F)c2)C1C(=O)Nc1ccncc1F (stereo not drawn) [Compound 22]
Plant response rating, Crabgrass, Large (crabgrass, large; [1]): 0 | Plant response rating, Crabgrass, Large (crabgrass, large; [2]): 70 | Plant response rating, Wheat (wheat; [1]): 0 | Plant response rating, Wheat (wheat; [2]): 0 | Plant response rating, Foxtail, Giant (giant foxtail; [1]): 0 | Plant response rating, Foxtail, Giant (giant foxtail; [2]): 30 | Plant response rating, Pigweed (pigweed; [1]): 0 | Plant response rating, Corn (corn; [1]): 0 | Plant response rating, Corn (corn; [2]): 0 | Plant response rating, Velvetleaf (velvetleaf; [1]): 0 | Plant response rating, Velvetleaf (velvetleaf; [2]): 0 | Plant response rating, Barnyardgrass (barnyardgrass; [1]): 0 | Plant response rating, Barnyardgrass (barnyardgrass; [2]): 0 | Plant response rating, Morningglory (morningglory; [1]): 0 | Plant response rating, Morningglory (morningglory; [2]): 0

CN(C(=O)C1C(=O)NCC1c1ccc(F)c(F)c1)c1ccccc1F (stereo not drawn) [Compound 24]
Plant response rating, Crabgrass, Large (crabgrass, large; [1]): 30 | Plant response rating, Crabgrass, Large (crabgrass, large; [2]): 70 | Plant response rating, Wheat (wheat; [1]): 0 | Plant response rating, Wheat (wheat; [2]): 0 | Plant response rating, Foxtail, Giant (giant foxtail; [1]): 0 | Plant response rating, Foxtail, Giant (giant foxtail; [2]): 40 | Plant response rating, Pigweed (pigweed; [1]): 0 | Plant response rating, Pigweed (pigweed; [2]): 0 | Plant response rating, Corn (corn; [1]): 0 | Plant response rating, Corn (corn; [2]): 0 | Plant response rating, Velvetleaf (velvetleaf; [1]): 0 | Plant response rating, Velvetleaf (velvetleaf; [2]): 60 | Plant response rating, Barnyardgrass (barnyardgrass; [1]): 0 | Plant response rating, Barnyardgrass (barnyardgrass; [2]): 0 | Plant response rating, Morningglory (morningglory; [1]): 0 | Plant response rating, Morningglory (morningglory; [2]): 0

C#CCN(C(=O)C1C(=O)NCC1c1ccc(F)c(F)c1)c1ccccc1[N+](=O)[O-] (stereo not drawn) [Compound 265]
Plant response rating, Crabgrass, Large (crabgrass, large; [1]): 0 | Plant response rating, Crabgrass, Large (crabgrass, large; [3]): 0 | Plant response rating, Wheat (wheat; [1]): 0 | Plant response rating, Wheat (wheat; [3]): 0 | Plant response rating, Foxtail, Giant (giant foxtail; [1]): 0 | Plant response rating, Foxtail, Giant (giant foxtail; [3]): 0 | Plant response rating, Pigweed (pigweed; [1]): 0 | Plant response rating, Pigweed (pigweed; [3]): 0 | Plant response rating, Corn (corn; [1]): 0 | Plant response rating, Corn (corn; [3]): 0 | Plant response rating, Velvetleaf (velvetleaf; [1]): 0 | Plant response rating, Velvetleaf (velvetleaf; [3]): 0 | Plant response rating, Barnyardgrass (barnyardgrass; [1]): 0 | Plant response rating, Barnyardgrass (barnyardgrass; [4]): 0 | Plant response rating, Morningglory (morningglory; [1]): 0 | Plant response rating, Morningglory (morningglory; [3]): 0

Cn1ccnc1C1CNC(=O)C1C(=O)Nc1cccc(F)c1F (racemic) [Compound 252]
Plant response rating, Crabgrass, Large (crabgrass, large; [1]): 0 | Plant response rating, Crabgrass, Large (crabgrass, large; [3]): 40 | Plant response rating, Wheat (wheat; [1]): 0 | Plant response rating, Wheat (wheat; [3]): 0 | Plant response rating, Foxtail, Giant (giant foxtail; [1]): 0 | Plant response rating, Foxtail, Giant (giant foxtail; [3]): 20 | Plant response rating, Pigweed (pigweed; [1]): 0 | Plant response rating, Corn (corn; [1]): 0 | Plant response rating, Corn (corn; [3]): 0 | Plant response rating, Velvetleaf (velvetleaf; [1]): 0 | Plant response rating, Velvetleaf (velvetleaf; [3]): 0 | Plant response rating, Barnyardgrass (barnyardgrass; [1]): 0 | Plant response rating, Barnyardgrass (barnyardgrass; [4]): 20 | Plant response rating, Morningglory (morningglory; [1]): 0 | Plant response rating, Morningglory (morningglory; [3]): 0

O=C1NCC(c2ccccc2F)C1C(=O)Nc1ccccc1F (racemic) [Compound 85]
Plant response rating, Crabgrass, Large (crabgrass, large; [5]): 0 | Plant response rating, Crabgrass, Large (crabgrass, large; [6]): 50 | Crabgrass, Large plant response rating (crabgrass, large; [7]): 30 | Plant response rating, Crabgrass, Large (crabgrass, large; [8]): 80 | Plant response rating, Wheat (wheat; [5]): 0 | Plant response rating, Wheat (wheat; [6]): 0 | Wheat plant response rating (wheat; [7]): 0 | Plant response rating, Wheat (wheat; [8]): 0 | Plant response rating, Foxtail, Giant (giant foxtail; [5]): 0 | Plant response rating, Foxtail, Giant (giant foxtail; [6]): 0 | Foxtail, Giant plant response rating (giant foxtail; [7]): 0 | Plant response rating, Foxtail, Giant (giant foxtail; [8]): 50 | Plant response rating, Pigweed (pigweed; [5]): 0 | Plant response rating, Pigweed (pigweed; [6]): 0 | Pigweed plant response rating (pigweed; [7]): 0 | Plant response rating, Pigweed (pigweed; [8]): 0 | Plant response rating, Corn (corn; [5]): 0 | Plant response rating, Corn (corn; [6]): 0 | Corn plant response rating (corn; [7]): 0 | Plant response rating, Corn (corn; [8]): 0 | Plant response rating, Velvetleaf (velvetleaf; [5]): 0 | Plant response rating, Velvetleaf (velvetleaf; [6]): 0 | Velvetleaf plant response rating (velvetleaf; [7]): 0 | Plant response rating, Velvetleaf (velvetleaf; [8]): 0 | Plant response rating, Barnyardgrass (barnyardgrass; [5]): 0 | Plant response rating, Barnyardgrass (barnyardgrass; [6]): 20 | Barnyardgrass plant response rating (barnyardgrass; [7]): 0 | Plant response rating, Barnyardgrass (barnyardgrass; [9]): 30 | Plant response rating, Morningglory (morningglory; [5]): 0 | Plant response rating, Morningglory (morningglory; [6]): 0 | Morningglory plant response rating (morningglory; [7]): 0 | Plant response rating, Morningglory (morningglory; [8]): 0

O=C1NCC(c2cc(Cl)cc(Cl)c2)C1C(=O)Nc1ccccc1F (racemic) [Compounds 90]
Plant response rating, Crabgrass, Large (crabgrass, large; [5]): 50 | Plant response rating, Crabgrass, Large (crabgrass, large; [6]): 70 | Crabgrass, Large plant response rating (crabgrass, large; [7]): 70 | Plant response rating, Crabgrass, Large (crabgrass, large; [8]): 80 | Plant response rating, Wheat (wheat; [5]): 0 | Plant response rating, Wheat (wheat; [6]): 0 | Wheat plant response rating (wheat; [7]): 0 | Plant response rating, Wheat (wheat; [8]): 0 | Plant response rating, Foxtail, Giant (giant foxtail; [5]): 40 | Plant response rating, Foxtail, Giant (giant foxtail; [6]): 70 | Foxtail, Giant plant response rating (giant foxtail; [7]): 60 | Plant response rating, Foxtail, Giant (giant foxtail; [8]): 70 | Plant response rating, Pigweed (pigweed; [5]): 0 | Plant response rating, Pigweed (pigweed; [6]): 20 | Pigweed plant response rating (pigweed; [7]): 0 | Plant response rating, Pigweed (pigweed; [8]): 0 | Plant response rating, Corn (corn; [5]): 0 | Plant response rating, Corn (corn; [6]): 30 | Corn plant response rating (corn; [7]): 0 | Plant response rating, Corn (corn; [8]): 0 | Plant response rating, Velvetleaf (velvetleaf; [5]): 0 | Plant response rating, Velvetleaf (velvetleaf; [6]): 0 | Velvetleaf plant response rating (velvetleaf; [7]): 0 | Plant response rating, Velvetleaf (velvetleaf; [8]): 0 | Plant response rating, Barnyardgrass (barnyardgrass; [5]): 30 | Plant response rating, Barnyardgrass (barnyardgrass; [6]): 70 | Barnyardgrass plant response rating (barnyardgrass; [7]): 30 | Plant response rating, Barnyardgrass (barnyardgrass; [9]): 70 | Plant response rating, Morningglory (morningglory; [5]): 0 | Plant response rating, Morningglory (morningglory; [6]): 0 | Morningglory plant response rating (morningglory; [7]): 0 | Plant response rating, Morningglory (morningglory; [8]): 0

O=C1NCC(c2ccccc2Cl)C1C(=O)Nc1ccccc1F (racemic) [Compound 88]
Plant response rating, Crabgrass, Large (crabgrass, large; [5]): 0 | Plant response rating, Crabgrass, Large (crabgrass, large; [6]): 60 | Crabgrass, Large plant response rating (crabgrass, large; [7]): 40 | Plant response rating, Crabgrass, Large (crabgrass, large; [8]): 80 | Plant response rating, Wheat (wheat; [5]): 0 | Plant response rating, Wheat (wheat; [6]): 0 | Wheat plant response rating (wheat; [7]): 0 | Plant response rating, Wheat (wheat; [8]): 0 | Plant response rating, Foxtail, Giant (giant foxtail; [5]): 0 | Plant response rating, Foxtail, Giant (giant foxtail; [6]): 0 | Foxtail, Giant plant response rating (giant foxtail; [7]): 0 | Plant response rating, Foxtail, Giant (giant foxtail; [8]): 30 | Plant response rating, Pigweed (pigweed; [5]): 0 | Plant response rating, Pigweed (pigweed; [6]): 0 | Pigweed plant response rating (pigweed; [7]): 0 | Plant response rating, Pigweed (pigweed; [8]): 30 | Plant response rating, Corn (corn; [5]): 0 | Plant response rating, Corn (corn; [6]): 0 | Corn plant response rating (corn; [7]): 0 | Plant response rating, Corn (corn; [8]): 0 | Plant response rating, Velvetleaf (velvetleaf; [5]): 0 | Plant response rating, Velvetleaf (velvetleaf; [6]): 0 | Velvetleaf plant response rating (velvetleaf; [7]): 0 | Plant response rating, Velvetleaf (velvetleaf; [8]): 0 | Plant response rating, Barnyardgrass (barnyardgrass; [5]): 0 | Plant response rating, Barnyardgrass (barnyardgrass; [6]): 40 | Barnyardgrass plant response rating (barnyardgrass; [7]): 0 | Plant response rating, Barnyardgrass (barnyardgrass; [9]): 50 | Plant response rating, Morningglory (morningglory; [5]): 0 | Plant response rating, Morningglory (morningglory; [6]): 0 | Morningglory plant response rating (morningglory; [7]): 0 | Plant response rating, Morningglory (morningglory; [8]): 0

C=CCN(C(=O)C1C(=O)NCC1c1ccc(F)c(F)c1)c1ccccc1[N+](=O)[O-] (stereo not drawn) [Compound 266]
Plant response rating, Crabgrass, Large (crabgrass, large; [1]): 0 | Plant response rating, Crabgrass, Large (crabgrass, large; [3]): 0 | Plant response rating, Wheat (wheat; [10]): 40 | Plant response rating, Wheat (wheat; [1]): 0 | Plant response rating, Wheat (wheat; [3]): 0 | Plant response rating, Foxtail, Giant (giant foxtail; [1]): 0 | Plant response rating, Foxtail, Giant (giant foxtail; [3]): 0 | Plant response rating, Pigweed (pigweed; [10]): 40 | Plant response rating, Pigweed (pigweed; [1]): 0 | Plant response rating, Pigweed (pigweed; [3]): 0 | Plant response rating, Corn (corn; [1]): 0 | Plant response rating, Corn (corn; [3]): 0 | Plant response rating, Velvetleaf (velvetleaf; [1]): 0 | Plant response rating, Velvetleaf (velvetleaf; [3]): 0 | Plant response rating, Barnyardgrass (barnyardgrass; [1]): 0 | Plant response rating, Barnyardgrass (barnyardgrass; [4]): 0 | Plant response rating, Morningglory (morningglory; [10]): 20 | Plant response rating, Morningglory (morningglory; [1]): 0 | Plant response rating, Morningglory (morningglory; [3]): 0
